Data on 4 compounds can be found in patent publication US4914086A, “Method for treating African human and veterinary trypanosomiases” (priority 1987, dated 1990).

Entries after “also recorded” stand apart in the source; their conditions may differ.

One series has as its system T. b. brucei EATRO 110. The series is described as follows: Drug screen, acute EATRO 110 mouse infection (Tables 1, 3). Format: in vivo, Trypanosoma brucei brucei (in Swiss-Webster mice). To be noted: for activity in words: 300 mg/kg; for activity in the acute (short term) EATRO 110 model, in words: text summary. The source says: (§1) T. b. brucei EATRO 110 isolate was maintained as described (Bacchi, C. J., H. C. Nathan, S. H. Hutner, P. P. McCann and A. Sjoerdsma; Polyamine metabolism: a potential chemotherapeutic target in trypanosomes. Science 210: 332-334, 1980). It produces an acute, rapidly fatal parasitemia which is lethal to mice 3-5 days after inoculation. Two T. B. brucei strains, TREU 667 and LUMP 1001 developed by Jennings and coworkers (Jennings, F. W., D. D. Whitelaw and G. M. Urquhart; The relationship between duration of infection with Trypanosoma brucei in mice and the efficacy of chemotherapy. Parasitology 75: 143-153, 1977/Jennings, F. W. and G. D. Gray; Relapsed parasitemia following chemotherapy of chronic T. brucei infections in mice and its relation to cerebral trypanosomes; Contr. Microbiol. Immunol. 7 147-154, 1983) were used as CNS models. Both produce infections which are refractory to Berenil® (diminazene aceturate) and develop within 21 days after inoculation. They are not usually fatal until >40 days after inoculation. LUMP 1001 causes a more virulent CNS infection than TREU 667, and is regarded as more difficult to cure (Jennings, F. W. and G. D. Gray. Relapsed parasitemia following chemotherapy of chronic T. brucei infections in mice and its relation to cerebral trypanosomes. Contr. Microbiol. Immunol. 7 147-154, 1983).
(§2) Swiss-Webster (25-30 g) mice were used throughout. In the EATRO 110 model, groups of 100 mice were infected (10^5 trypanosomes/mouse) and the infection was allowed to develop 24 hours before commencing therapy. Animals were divided into groups of 5 before treatment. Cured animals survived >30 days beyond deaths of controls. All compounds were administered by i.p. injection.
Other methods as in Table 1.

Series [1] deals with Trypanosoma brucei rhodesiense. The following applies: bone marrow tissue culture system; cited from earlier work.
The subject of series [2] is Trypanosoma brucei gambiense. The following applies: bone marrow tissue culture system; cited from earlier work.
The test system of a further series is human macrophages. The following applies: cited from earlier work.
A further series deals with T. cruzi. To be noted: previous studies; cited from earlier work.
A further series deals with mouse L cells. The following applies: cited from earlier work.
The next series relates to mammalian cells. The following applies: cited from earlier work.
The test system of a further series is African trypanosomes. The following applies: previous studies; cited from earlier work.
A further series in a line: in vivo. How it is done: as §2
The next series relates to T. brucei subsp. To be noted: cited from earlier work.
In another series the test system is Pneumocystis Carinii. To be noted: tissue culture; cited from earlier work.
The next series relates to T. b. brucei TREU 667. Briefly: CNS model, T. b. brucei TREU 667 infection in mice (Table 4). Format: in vivo, Trypanosoma brucei brucei (in Swiss-Webster mice). The following applies: for efficacy in CNS model in words: 100 mg/kg × 6 doses/days.
From the text: as §1
The models for […] nervous system infections used TREU 667 and LUMP 1001 strains which were stored frozen and passaged once in rats before infection of mice. Maintenance and use of these screens were as described (Clarkson, A. B. Jr., C. J. Bacchi, G. H. Mellon, H. C. Nathan, P. P. McCann and A. Sjoerdsma. Efficacy of DFMO+blemoycin in a mouse model of central nervous system African trypanosomiasis. Proc. Natl. Acad. Sci. USA. 80: 5729-5733, 1983/Clarkson, A. B. Jr., E. J. Biene, C. J. Bacchi, P. P. McCann, S. H. Hutner and A. Sjoerdsma. New drug combination for experimental late stage African trypanosomiasis: DFMO with suramin. Am. J. Trop. Med. Hyg. 33: 1073-1077, 1984/Dube, D. K., G. Mpimbaza, A. C. Allison, E. Lederer and L. Rovis. Antitrypanosomal activity of sinefungin, Am. J. Trop. Med. Hyg. 32: 31-33, 1983/Fish, W. R., J. J. Marr, R. L. Berens, D. L. Looker, D. J. Nelson, S. LaFon and A. E. Balber. Inosine analogs as chemotherapeutic agents for African trypanosomes: metabolism in trypanosomes and efficacy in tissue culture. Anti-microb. Ag. Chemother. 27: 33-36, 1985/Clazer, R. I., and L. S. Lloyd. Effects of 8-azaadenosine and formycin on cell lethality and the synthesis and methylation of nucleic acids in human colon carcinoma cells in culture. Biochem. Pharmacol. 31: 3207-3214, 1982/Bacchi, C. J., H. C. Nathan, A. B. Clarkson, Jr., E. J. Bienen, A. J. Bitonti, P. P. McCann and A. Sjoerdsma. Activity of the ornithine decarboxylase inhibitors DL-α-difluoromethylornithine and monofluormethyldehydroornithine methylester alone and in combination with suramin against Trypanosoma brucei brucei central nervous system models, Am. J. Trop. Med. Hyg. (in press)). Briefly, groups of 100-120 mice were infected and the infections allowed to develop until day 21, when the animals were separated into groups of 10 and therapy commenced. Controls were treated with Berenil (40 mg/kg) on day 21. These always relapsed 40-70 days after treatment. Parasitemia was followed by examining tail vein blood smears once weekly. Animals which had relapsed were removed from cages. TREU 667 infections were followed >225 days after inoculation and LUMP 1001 were followed >280 days, as determined by the relapse pattern in previous work (Bacchi, C. J., H. C. Nathan, A. B. Clarkson, Jr., E. J. Bienen, A. J. Bitonti, P. P. McCann and A. Sjoerdsma. Activity of the ornithine decarboxylase inhibitors DL-α-difluoromethylornithine and monofluormethyldehydroornithine methylester alone and in combination with suramin against Trypanosoma brucei brucei central nervous system models. Am. J. Trop. Med. Hyg. (in press)). […]

The subject of a further series is Leishmania spp. The following applies: previous studies; cited from earlier work.
The subject of series [3] is human colon carcinoma cells. To be noted: cited from earlier work.
Where [4] appears, read: Table 1, 250 mg/kg i.p., treatment begun 24 h post infection.
Where [5] appears, read: Table 1, 300 mg/kg i.p., treatment begun 24 h post infection.
Where [6] appears, read: Table 1, 2.5 mg/kg i.p. (9-DINO, sinefungin once daily for 3 days).
The mark [7] stands for this setting: Table 1, 5 mg/kg i.p. (9-DINO, sinefungin once daily for 3 days).
The mark [8] stands for this setting: Table 1, 10 mg/kg i.p. (9-DINO, sinefungin once daily for 3 days).
The mark [9] stands for this setting: Table 1, 25 mg/kg i.p. (9-DINO, sinefungin once daily for 3 days).
Where [10] appears, read: Table 1, 50 mg/kg i.p. (9-DINO, sinefungin once daily for 3 days).
Setting [11] is: Table 1, 100 mg/kg i.p. (9-DINO, sinefungin once daily for 3 days).
[12] abbreviates: Table 3, 0.05 mg/kg i.p. once daily for 3 days.
[13] abbreviates: Table 3, 0.1 mg/kg i.p. once daily for 3 days.
The mark [14] stands for this setting: Table 3, 0.25 mg/kg i.p. once daily for 3 days.
Setting [15] is: Table 3, 0.5 mg/kg i.p. once daily for 3 days.

For the compound `O=c1ncnc2n([C@H]3O[C@@H](CO)[C@H](O)[C@@H]3O)[nH]cc1-2` (stereo in doubt) [Allopurinol Riboside, reference compound], the activity in words result in the series with T. b. brucei EATRO 110 is “completely inactive”. In addition, in the series on T. b. brucei EATRO 110 (setting [4]), the “# Cured/Total” value was 0/5 and the “% Cured” value was 0%.

In the case of `Oc1ncnc2[nH]ncc12` [Allopurinol, reference compound], in the series with T. b. brucei EATRO 110, the activity in words result was “completely inactive”. In the series with T. b. brucei EATRO 110 (setting [5]), the “# Cured/Total” value is listed as 0/5 and the “% Cured” value amounted to 0%.

For `O=c1[nH]cnc2c([C@@H]3O[C@H](CO)[C@@H](O)[C@H]3O)n[nH]c12` [Formycin B, 7-hydroxypyrazolo (4,3-d) pyrimidine ribonucleoside], the activity in words result is “active at very low concentrations; also recorded: somewhat more efficacious than 9-deazainosine” in series [1]; “active at very low concentrations; also recorded: somewhat more efficacious than 9-deazainosine” in series [2]; “active” in the series with T. cruzi; “active” with African trypanosomes; “active” in the series on Pneumocystis Carinii; “active” in the series on Leishmania spp. In the series with human macrophages, the “conversion to adenine nucleotide analogs / incorporation in words” value is on record as “this occurred in human macrophages”. Besides, the metabolism in words result in the series with mouse L cells was “Mouse L cells can convert formycin B to the analogs of adenine nucleotides and incorporate the ATP analog into RNA”; with mammalian cells it was “metabolized by mammalian cells to its aminated analog formycin A”; in the series on T. brucei subsp. it was “can be aminated by T. brucei subsp. and converted to analogs of ATP”. In the series on mammalian cells, the “cleavage into ribose and purine analog moieties” value was “cannot be cleaved into ribose and purine analog moieties”. For the same compound, the toxicity in words result in “in vivo” (100 mg/kg) is reported as “toxicity was observed; also recorded: loss of hair”. In “in vivo” (mouse, in vivo, ip, 100 mg/kg), this compound returned a mortality of 20%. Also, the “dose at which toxicity appeared” value in the series “in vivo” (short term model, Table 1) was 100 mg/kg. Further, the “curative / active dose range” value in the series on T. b. brucei EATRO 110 (EATRO 110, text) lay in the range of 5 to 100 mg/kg. In addition, the “# Cured/Total” value in the series on T. b. brucei EATRO 110 (setting [6]) is reported as 5/5; in the series with T. b. brucei EATRO 110 (setting [7]) it was 4/5; in the series with T. b. brucei EATRO 110 (setting [8]), 5/5; with T. b. brucei EATRO 110 (setting [9]), 9/10; with T. b. brucei EATRO 110 (setting [10]) it was 5/5; in the series with T. b. brucei EATRO 110 (setting [11]), 4/5. In addition, the “# Cured/Total” value in the series with T. b. brucei EATRO 110 (setting [12]) is given as 0/5; in the series with T. b. brucei EATRO 110 (setting [13]), 0/5; in the series with T. b. brucei EATRO 110 (setting [14]), 1/10; in the series with T. b. brucei EATRO 110 (setting [15]) it was 3/5; with T. b. brucei TREU 667 (5 mg/kg i.p., 7 days), 0/8; with T. b. brucei TREU 667 (10 mg/kg i.p., 7 days), 0/9. The “# Cured/Total” value in the series with T. b. brucei TREU 667 (25 mg/kg i.p., 7 days) is reported as 0/10; with T. b. brucei TREU 667 (50 mg/kg i.p., 6 days), 0/10; with T. b. brucei TREU 667 (100 mg/kg i.p., 6 days), 0/9. Besides, the “% Cured” value with T. b. brucei EATRO 110 (setting [6]) amounted to 100%; in the series with T. b. brucei EATRO 110 (setting [7]) it was 80%; in the series on T. b. brucei EATRO 110 (setting [8]) it was 100%; with T. b. brucei EATRO 110 (setting [9]), 90%; with T. b. brucei EATRO 110 (setting [10]) it was 100%; with T. b. brucei EATRO 110 (setting [11]), 80%. Also, the “% Cured” value in the series with T. b. brucei EATRO 110 (setting [12]) worked out at 0%; with T. b. brucei EATRO 110 (setting [13]), 0%; in the series on T. b. brucei EATRO 110 (setting [14]) it was 10%; with T. b. brucei EATRO 110 (setting [15]), 60%; in the series with T. b. brucei TREU 667 (5 mg/kg i.p., 7 days) it was 0%; with T. b. brucei TREU 667 (10 mg/kg i.p., 7 days), 0%. Also, the “% Cured” value was determined as 0% with T. b. brucei TREU 667 (25 mg/kg i.p., 7 days); 0% with T. b. brucei TREU 667 (50 mg/kg i.p., 6 days); 0% in the series on T. b. brucei TREU 667 (100 mg/kg i.p., 6 days). Also, the “relative activity of formycin B versus 9-DINO” value with T. b. brucei EATRO 110 (comparison of activity ranges) is greater than 10 X. In addition, the “activity in the acute (short term) EATRO 110 model, in words” value is “most active; also recorded: extremely active” in the series with T. b. brucei EATRO 110 and “greatest activity; also recorded: more active than 9-DINO” in the series on T. b. brucei EATRO 110 (listed as formycin B). Further, the “Avg. Day of Relapse (Range)” value with T. b. brucei TREU 667 (5 mg/kg i.p., 7 days) was 42 (37-49) Day; with T. b. brucei TREU 667 (10 mg/kg i.p., 7 days) it was 40 (37-41) Day; with T. b. brucei TREU 667 (25 mg/kg i.p., 7 days) it was 40 (37-68) Day; in the series with T. b. brucei TREU 667 (50 mg/kg i.p., 6 days), 34 (23-35) Day; in the series on T. b. brucei TREU 667 (100 mg/kg i.p., 6 days) it was 35 days. In addition, the “efficacy in CNS model in words” value is “not curative” with T. b. brucei TREU 667 and “failed to protect” in the series with T. b. brucei TREU 667 (listed as formycin B).

Turning to `Nc1ncnc2c([C@@H]3O[C@H](CO)[C@@H](O)[C@H]3O)n[nH]c12` [formycin A], the “incorporation into DNA in words” value in series [3] was “can be incorporated into DNA”.
